Assay results published in patent US20060229368A1, “MEDICAL APPLICATION OF OXIDIZED MONOTERPENES” (priority 2001, published 2006).

Assays:
A. niger [1] = assay: agar diffusion-disk technique, halo formation (fungal strains); type: cell-based, Aspergillus niger; details: for re-growth around the formulation: A. niger, 96 hours after inhibition; for activity against A. niger: formulation at 0.5%, after 7 days
Description: This technique is explained in R. K. Dart, Microbiology for the Analytic Chemist, The Royal Society of Chemists, 1996, which is incorporated herein by reference. […] Anti-bacterial activity was detected by showing a distinguished halo around the disk previously wetted with the formulation. Halo formation was measured with a caliper and biological activity was considered according to size. Details of specific applications and formulations are set forth below. […] SDS indicates Sodium Dodecyl Sulfate. […] Details of specific applications and formulations are set forth below.

A. niger [2] = assay: culture of the fungi A. niger exposed to disk moistened with formulation (glycerol/SDS base); type: cell-based, Aspergillus niger; details: under more controlled conditions; 0.5 and 1% formulations
Description: Formulations were further tested against a culture of the fungi A. niger. The fungi was exposed to 1% PCO/1% POH, 1% PCO, and 1% POH formulations. All formulations were prepared in a glycerol/SDS base in water.

bacteria, yeast or fungi = assay: general statements on activity against bacteria, yeast or fungi; type: cell-based; details: enhancer alone

C=C(C)C1CC=C(C=O)CC1 (stereo not drawn) [PCO, perillyl aldehyde]
re-growth around the formulation (A. niger [1]): no growth
activity against A. niger (A. niger [1]): very active
inhibition of growth of A. niger (A. niger [2]): did inhibit growth

C=C(C)[C@@H]1CC=C(CO)CC1 [POH, perillyl alcohol, reference compound]
re-growth around the formulation (A. niger [1]): re-growth
activity against A. niger (A. niger [1]): considerable growth
inhibition of growth of A. niger (A. niger [2]): did not perform as aggressively

CCCCCCCCCCCCOS(=O)(=O)[O-].[Na+] [SDS, Sodium Dodecyl Sulfate]
activity against bacterial cells (bacteria, yeast or fungi): do not provide activity

CC(O)CO (stereo not drawn) [propylene glycol]
activity against bacterial cells (bacteria, yeast or fungi): do not provide activity
effect against bacteria, yeast or fungi (bacteria, yeast or fungi): no effect
